What was measured:
[1] = molecular target: T1, Protein mono-ADP-ribosyltransferase PARP3 (Homo sapiens) (UniProt Q9Y6F1); assay: Inhibition of N-terminal GST tagged full length human PARP3 expressed in baculovirus infected Sf9 cells assessed as reduction in NAD+-dependent ADP ribosylation using histone as substrate at 10 uM incubated for 1 hr in presence of biotinylated NAD+ and activated DNA by chemiluminescence based microplate reader assay relative to control
T1 sequence (whole entry): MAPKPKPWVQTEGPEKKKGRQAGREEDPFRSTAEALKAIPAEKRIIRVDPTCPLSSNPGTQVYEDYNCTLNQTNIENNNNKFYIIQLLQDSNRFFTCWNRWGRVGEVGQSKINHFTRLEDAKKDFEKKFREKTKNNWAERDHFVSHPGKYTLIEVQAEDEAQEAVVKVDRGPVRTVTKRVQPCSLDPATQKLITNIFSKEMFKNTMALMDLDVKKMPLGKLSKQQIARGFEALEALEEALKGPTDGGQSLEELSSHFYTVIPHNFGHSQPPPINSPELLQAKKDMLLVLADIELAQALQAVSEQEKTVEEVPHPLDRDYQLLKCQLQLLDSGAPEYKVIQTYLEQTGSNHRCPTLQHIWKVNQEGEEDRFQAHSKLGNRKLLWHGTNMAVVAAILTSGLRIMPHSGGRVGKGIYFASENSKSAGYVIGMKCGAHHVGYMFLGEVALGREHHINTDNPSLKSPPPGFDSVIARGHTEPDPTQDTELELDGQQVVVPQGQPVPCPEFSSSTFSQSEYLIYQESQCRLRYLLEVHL

[2] = molecular target: T2, Poly [ADP-ribose] polymerase tankyrase-2 (Homo sapiens) (UniProt Q9H2K2); assay: Inhibition of TNKS2 (unknown origin) at 10 uM relative to control
T2 sequence (whole entry): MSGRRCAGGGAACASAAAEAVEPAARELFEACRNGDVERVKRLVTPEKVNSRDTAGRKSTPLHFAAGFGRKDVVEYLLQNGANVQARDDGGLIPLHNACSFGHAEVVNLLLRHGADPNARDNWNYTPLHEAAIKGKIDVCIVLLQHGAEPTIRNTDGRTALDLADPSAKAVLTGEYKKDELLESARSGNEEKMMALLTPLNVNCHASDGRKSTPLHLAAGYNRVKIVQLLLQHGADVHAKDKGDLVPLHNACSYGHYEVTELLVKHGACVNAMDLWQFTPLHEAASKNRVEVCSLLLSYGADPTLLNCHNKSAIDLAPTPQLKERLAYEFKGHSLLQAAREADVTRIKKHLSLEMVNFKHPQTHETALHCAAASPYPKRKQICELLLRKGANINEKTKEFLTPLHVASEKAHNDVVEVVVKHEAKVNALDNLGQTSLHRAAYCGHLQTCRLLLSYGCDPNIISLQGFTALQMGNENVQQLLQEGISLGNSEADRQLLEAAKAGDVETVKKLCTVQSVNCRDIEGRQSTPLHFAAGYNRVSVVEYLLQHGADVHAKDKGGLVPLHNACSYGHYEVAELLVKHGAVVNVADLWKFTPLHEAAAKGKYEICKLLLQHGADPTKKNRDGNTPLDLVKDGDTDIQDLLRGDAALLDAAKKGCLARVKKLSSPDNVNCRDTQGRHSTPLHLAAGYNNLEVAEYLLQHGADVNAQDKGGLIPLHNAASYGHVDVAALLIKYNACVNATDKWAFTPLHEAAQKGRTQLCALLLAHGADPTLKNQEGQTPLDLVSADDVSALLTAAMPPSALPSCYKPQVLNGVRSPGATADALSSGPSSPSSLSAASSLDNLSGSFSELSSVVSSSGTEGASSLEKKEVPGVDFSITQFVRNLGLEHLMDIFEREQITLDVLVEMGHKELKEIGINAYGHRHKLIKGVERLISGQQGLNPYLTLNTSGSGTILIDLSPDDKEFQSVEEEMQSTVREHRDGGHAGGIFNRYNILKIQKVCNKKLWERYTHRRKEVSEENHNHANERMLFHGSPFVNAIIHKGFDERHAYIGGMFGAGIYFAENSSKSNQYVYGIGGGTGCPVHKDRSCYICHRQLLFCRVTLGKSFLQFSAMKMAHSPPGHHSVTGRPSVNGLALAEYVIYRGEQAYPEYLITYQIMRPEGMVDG

Compound	inhibition [1]	inhibition [2]
CC1(CNC(=O)COc2cccc3c2CCCC3=O)CCN(C(=O)CCc2nc3ccccc3[nH]c2=O)CC1	22%	> 50%
CNC(=O)[C@H](CNC(=O)CCc1nc2ccccc2[nH]c1=O)NC(=O)c1ccc2c(c1)CCCC2=O	< 25%	< 25%
